Results on 19 molecules are retold here after US9682965B2, “Fumagillol heterocyclic compounds and methods of making and using same” (Zafgen, Inc., priority 2015, dated 2017).

Counter-ions that a name gives are not always drawn.

This experiment concerns Diet Induced Obese (DIO) C57BL/6 mice. The experiment in a line: 10 day DIO mouse model (body weight, food intake, hematology, blood chemistry). It is filed as in vivo. As to conditions: 240 h; DIO mouse, 0.3 mpk sc, once a day for 10 days; read-out: DIO Mouse 10-day weight loss vs vehicle. The source says:
The objective of this study design was to investigate the efficacy of disclosed compounds in a 10 day DIO mouse model. Effects on body weight, food intake, hematology and blood chemistry were the primary readouts of this study design. […] Mice were fed Research Diets D12492 (60% Kcal fat, 20% Kcal carbohydrate and 20% protein) and provided water ad libitum. DIO mice were received and housed in the facility for approximately two weeks prior to the start of test article administration. On Day −4 or −3, mice were randomized into study groups based on body weight and body weights were continued to be recorded daily for the duration of the study. Daily food intake was assessed starting on Study Day −2 by weighing of the food with hopper together to avoid loss of food in transfer.
Compounds were formulated into a 100% DMSO stock (at 9 mg/mL) prior to the start, and further diluted into the target working concentration using the vehicle of 10% DMSO in water. Prior to test article administration, starting on Day −3 a dosing acclimation occured with all animals receiving a subcutaneous injection of vehicle (10% DMSO) only for 3 days. Starting on Day 1, test compounds or vehicle were administered based on individual body weight, subcutaneously, once a day for 10 days. All mice were sacrificed on Day 11, 24 hours following the final dosing on Day 10. After sacrifice, whole blood was collected and analyzed for hematology and blood chemistry parameters.
Compounds were tested vs. vehicle at various doses (1.0, 0.5, 0.3, 0.1, 0.03 mpk sc (mg per kg animal weight delivered subcutaneously), and the results are shown in Table 2 below.
`CO[C@@H]1[C@H](OC(=O)N2CC(CCN3CCCC3)C2)CC[C@]2(CO2)[C@H]1[C@@]1(C)O[C@@H]1CC=C(C)C` [Example 3, (3R,4S,5S,6R)-5-methoxy-4-((2R,3R)-2-methyl-3-(3-methylbut-2-enyl)oxiran-2-yl)-1-oxaspiro[2.5]octan-6-yl 3-(2-(pyrrolidin-1-yl)ethyl)azetidine-1-carboxylate formate]: the inhibition in vivo at 0.3 mg/kg is 5.9%. In the case of `CO[C@@H]1[C@H](OC(=O)N2CC(CCN3CCS(=O)(=O)CC3)C2)CC[C@]2(CO2)[C@H]1[C@@]1(C)O[C@@H]1CC=C(C)C` [Example 10, (3R,4S,5S,6R)-5-methoxy-4-((2R,3R)-2-methyl-3-(3-methylbut-2-enyl)oxiran-2-yl)-1-oxaspiro[2.5]octan-6-yl 3-(2-thiomorpholinoethyl)azetidine 2,2-dioxide-1-carboxylate] it was 1.8%; in that of `CO[C@@H]1[C@H](OC(=O)N2CC(CCN3CCN(C)C(=O)C3)C2)CC[C@]2(CO2)[C@H]1[C@@]1(C)O[C@@H]1CC=C(C)C` [Example 11, (3R,4S,5S,6R)-5-methoxy-4-((2R,3R)-2-methyl-3-(3-methylbut-2-enyl)oxiran-2-yl)-1-oxaspiro[2.5]octan-6-yl 3-(2-(4-methyl-3-oxopiperazin-1-yl)ethyl)azetidine-1-carboxylate formate], 2%; in that of `CO[C@@H]1[C@H](OC(=O)N2CC(CCN3CCNC(=O)C3)C2)CC[C@]2(CO2)[C@H]1[C@@]1(C)O[C@@H]1CC=C(C)C` [Example 12, (3R,4S,5S,6R)-5-methoxy-4-((2R,3R)-2-methyl-3-(3-methylbut-2-enyl)oxiran-2-yl)-1-oxaspiro[2.5]octan-6-yl 3-(2-(3-oxopiperazin-1-yl)ethyl)azetidine-1-carboxylate], 1.1%.

`CO[C@@H]1[C@H](OC(=O)N2CC(CCN3CCC(F)(F)CC3)C2)CC[C@]2(CO2)[C@H]1[C@@]1(C)O[C@@H]1CC=C(C)C` [Example 13, (3R,4S,5S,6R)-5-methoxy-4-((2R,3R)-2-methyl-3-(3-methylbut-2-enyl)oxiran-2-yl)-1-oxaspiro[2.5]octan-6-yl 3-(2-(4,4-difluoropiperidin-1-yl)ethyl)azetidine-1-carboxylate]: the inhibition in vivo at 0.3 mg/kg stood at 18.2%. In the case of `CO[C@@H]1[C@H](OC(=O)N2CC(CCN3CC(C)(C#N)C3)C2)CC[C@]2(CO2)[C@H]1[C@@]1(C)O[C@@H]1CC=C(C)C` [Example 14, (3R,4S,5S,6R)-5-methoxy-4-((2R,3R)-2-methyl-3-(3-methylbut-2-enyl)oxiran-2-yl)-1-oxaspiro[2.5]octan-6-yl 3-(2-(3-cyano-3-methylazetidin-1-yl)ethyl)azetidine-1-carboxylate] it was 12.5%. For `CO[C@@H]1[C@H](OC(=O)N2CC(CCN3CCN(S(C)(=O)=O)CC3)C2)CC[C@]2(CO2)[C@H]1[C@@]1(C)O[C@@H]1CC=C(C)C` [Example 15, (3R,4S,5S,6R)-5-methoxy-4-((2R,3R)-2-methyl-3-(3-methylbut-2-enyl)oxiran-2-yl)-1-oxaspiro[2.5]octan-6-yl 3-(2-(4-(methylsulfonyl)piperazin-1-yl)ethyl)azetidine-1-carboxylate], the inhibition in vivo at 0.3 mg/kg amounted to 0.1%. In the case of `CO[C@@H]1[C@H](OC(=O)N2CC(CCn3ccnc3)C2)CC[C@]2(CO2)[C@H]1[C@@]1(C)O[C@@H]1CC=C(C)C` [Example 18, (3R,4S,5S,6R)-5-methoxy-4-((2R,3R)-2-methyl-3-(3-methylbut-2-enyl)oxiran-2-yl)-1-oxaspiro[2.5]octan-6-yl 3-(2-(1H-imidazol-1-yl)ethyl)azetidine-1-carboxylate], the inhibition in vivo at 0.3 mg/kg came out at 3%. Next, `CO[C@@H]1[C@H](OC(=O)N2CC(CCN3CC(C(=O)N(C)C)C3)C2)CC[C@]2(CO2)[C@H]1[C@@]1(C)O[C@@H]1CC=C(C)C` [Example 19, (3R,4S,5S,6R)-5-methoxy-4-((2R,3R)-2-methyl-3-(3-methylbut-2-enyl)oxiran-2-yl)-1-oxaspiro[2.5]octan-6-yl 3-(2-(3-(dimethylcarbamoyl)azetidin-1-yl)ethyl)azetidine-1-carboxylate]: 6.7%; `CO[C@@H]1[C@H](OC(=O)N2CC(CCN3CC(C)(C(=O)N(C)C)C3)C2)CC[C@]2(CO2)[C@H]1[C@@]1(C)O[C@@H]1CC=C(C)C` [Example 20, (3R,4S,5S,6R)-5-methoxy-4-((2R,3R)-2-methyl-3-(3-methylbut-2-enyl)oxiran-2-yl)-1-oxaspiro[2.5]octan-6-yl 3-(2-(3-(dimethylcarbamoyl)-3-methylazetidin-1-yl)ethyl)azetidine-1-carboxylate]: 2.1%. Next, `CO[C@H]1CCN(CCC2CN(C(=O)O[C@@H]3CC[C@]4(CO4)[C@@H]([C@@]4(C)O[C@@H]4CC=C(C)C)[C@@H]3OC)C2)C1` [Example 25, (3R,4S,5S,6R)-5-methoxy-4-((2R,3R)-2-methyl-3-(3-methylbut-2-enyl)oxiran-2-yl)-1-oxaspiro[2.5]octan-6-yl 3-(2-((S)-3-methoxypyrrolidin-1-yl)ethyl)azetidine-1-carboxylate]: 4.8%; `CO[C@@H]1CCN(CCC2CN(C(=O)O[C@@H]3CC[C@]4(CO4)[C@@H]([C@@]4(C)O[C@@H]4CC=C(C)C)[C@@H]3OC)C2)C1` [Example 26, (3R,4S,5S,6R)-5-methoxy-4-((2R,3R)-2-methyl-3-(3-methylbut-2-enyl)oxiran-2-yl)-1-oxaspiro[2.5]octan-6-yl 3-(2-((R)-3-methoxypyrrolidin-1-yl)ethyl)azetidine-1-carboxylate]: 4.1%. In the case of `CO[C@@H]1[C@H](OC(=O)N2CC(CCN3CC[C@@H](F)C3)C2)CC[C@]2(CO2)[C@H]1[C@@]1(C)O[C@@H]1CC=C(C)C` [Example 27, (3R,4S,5S,6R)-5-methoxy-4-((2R,3R)-2-methyl-3-(3-methylbut-2-enyl)oxiran-2-yl)-1-oxaspiro[2.5]octan-6-yl 3-(2-((R)-3-fluoropyrrolidin-1-yl)ethyl)azetidine-1-carboxylate], the inhibition in vivo at 0.3 mg/kg worked out at 13.3%. Take `CO[C@@H]1[C@H](OC(=O)N2CC(CCN3CC[C@H](F)C3)C2)CC[C@]2(CO2)[C@H]1[C@@]1(C)O[C@@H]1CC=C(C)C` [Example 28, (3R,4S,5S,6R)-5-methoxy-4-((2R,3R)-2-methyl-3-(3-methylbut-2-enyl)oxiran-2-yl)-1-oxaspiro[2.5]octan-6-yl 3-(2-((S)-3-fluoropyrrolidin-1-yl)ethyl)azetidine-1-carboxylate]: the inhibition in vivo at 0.3 mg/kg came out at 12.7%.

Take `CO[C@@H]1[C@H](OC(=O)N2CC(CCN3CCC(C)(C#N)CC3)C2)CC[C@]2(CO2)[C@H]1[C@@]1(C)O[C@@H]1CC=C(C)C` [Example 29, (3R,4S,5S,6R)-5-methoxy-4-((2R,3R)-2-methyl-3-(3-methylbut-2-enyl)oxiran-2-yl)-1-oxaspiro[2.5]octan-6-yl 3-(2-(4-cyano-4-methylpiperidin-1-yl)ethyl)azetidine-1-carboxylate]: the inhibition in vivo at 0.3 mg/kg was 10.7%.

With `CO[C@@H]1[C@H](OC(=O)N2CC(CCN3CCC(F)CC3)C2)CC[C@]2(CO2)[C@H]1[C@@]1(C)O[C@@H]1CC=C(C)C` [Example 30, (3R,4S,5S,6R)-5-methoxy-4-((2R,3R)-2-methyl-3-(3-methylbut-2-enyl)oxiran-2-yl)-1-oxaspiro[2.5]octan-6-yl 3-(2-(4-fluoropiperidin-1-yl)ethyl)azetidine-1-carboxylate], the inhibition in vivo at 0.3 mg/kg is 9.1%. On to `CO[C@@H]1[C@H](OC(=O)N2CC(CCN3[C@@H]4CC[C@H]3COC4)C2)CC[C@]2(CO2)[C@H]1[C@@]1(C)O[C@@H]1CC=C(C)C` [Example 31, (3R,4S,5S,6R)-5-methoxy-4-((2R,3R)-2-methyl-3-(3-methylbut-2-enyl)oxiran-2-yl)-1-oxaspiro[2.5]octan-6-yl 3-(2-((1R,5S)-3-oxa-8-azabicyclo[3.2.1]octan-8-yl)ethyl)azetidine-1-carboxylate], for which the inhibition in vivo at 0.3 mg/kg turned out to be 4.2%. Regarding `CO[C@@H]1[C@H](OC(=O)N2CC(CCN3C4CCC3CC4)C2)CC[C@]2(CO2)[C@H]1[C@@]1(C)O[C@@H]1CC=C(C)C` [Example 32, (3R,4S,5S,6R)-5-methoxy-4-((2R,3R)-2-methyl-3-(3-methylbut-2-enyl)oxiran-2-yl)-1-oxaspiro[2.5]octan-6-yl 3-(2-((1S,4S)-7-azabicyclo[2.2.1]heptan-7-yl)ethyl)azetidine-1-carboxylate], the inhibition in vivo at 0.3 mg/kg was 0.5%. Next, `CO[C@@H]1[C@H](OC(=O)N2CC(CCN3CCN(CC(F)F)CC3=O)C2)CC[C@]2(CO2)[C@H]1[C@@]1(C)O[C@@H]1CC=C(C)C` [Example 35, (3R,4S,5S,6R)-5-methoxy-4-((2R,3R)-2-methyl-3-(3-methylbut-2-enyl)oxiran-2-yl)-1-oxaspiro[2.5]octan-6-yl 3-(2-(4-(2,2-difluoroethyl)-2-oxopiperazin-1-yl)ethyl)azetidine-1-carboxylate]: 21.3%.
